Measurements: patent US10221190B2, “Biguanide compounds and use thereof” (IMMUNOMET THERAPEUTICS INC., priority 2013, dated 2019)

Each molecule was assayed on HCT116 cell (assay: Inhibitory activity against cancer cells (MTT cell viability), HCT116). Conditions: HCT 116, 48 hr incubation.
Type: cell-based, human
Experimental: The inhibitory activities of biguanide derivatives against cancer cells were evaluated in the cell line SK-MEL-28 derived from human Melanoma cell, Miapaka-2 cell line derived from human pancreatic cancer cell and HCT116 cell line derived from human colorectal cancer cell by measuring the concentration that inhibits 50% of the growth of the cell lines (the half maximal inhibitory concentration, IC50).
Firstly, SK-MEL-28 cells were grown to be density of 5,000 cells/well in RPMI-1640 media supplemented with 10% (v/v) bovine calf serum, on 96-well plates for 16 hr. To measure the IC50 of each compound, the cells were incubated for 48 hr with the 100 mM PBS stock compounds at an amount of 10 mM, 1 mM, 200 uM, 40 uM, 8 uM, 1.6 uM, 0.32 uM or 0.064 uM; 50 mM PBS and EtOH stock compounds at an amount of 1 mM, 200 uM, 40 uM, 8 uM, 1.6 uM, 0.32 uM and 0.064 uM; and 50 mM DMSO stock compounds at an amount of 100 uM, 25 uM, 6.25 uM, 1.56 uM, 0.39 uM, 0.10 uM and 0.02 uM, respectively. To test the viable cells after incubation with each compound, the cell cultures were incubated additionally for 2 hr in the presence of MTT. The produced formazan crystals were dissolved with dimethyl sulfoxide and then measured by detecting the absorbance at 560 nm.
After the 48 hr incubation, the viable cells were counted on the well plates treated with the compounds of the Examples relative to the count of the viable cells on the non-treated plates, and then was represented as the cell viability (%). By using the cell viability (%) result, the cell viability curve was plotted, and IC50 was calculated from the curve to evaluate the inhibitory activity against cancer cells.
The inhibitory activities of biguanide derivatives against cancer cells of Miapaca-2 cell and HCT116 cell were evaluated according to the substantially same method as described in SK-MEL-28 cell, except that DMEM media supplemented with 10% (v/v) bovine calf serum was used instead of RPMI-1640 media supplemented with 10% (v/v) bovine calf serum for SK-MEL-28 cell.

Molecule | IC50 [µM]
N1-3-phenoxyphenyl-N5-(4-trifluoromethoxy)phenyl biguanide [Example 76] | 3.12

Same assay, conditions: Homo sapiens, HCT 116, 48 hr incubation

Molecule | IC50 [µM]
CN1CCN(C(=N)NC(=N)NCc2ccc(F)c(OC(F)(F)F)c2)CC1 [Example 41, N1-4-methyl piperazine-N5-(4-fluoro-3-trifluoromethoxy)benzyl biguanide] | > 100
C[C@@H]1CCC[C@H](C)N1C(=N)NC(=N)Nc1ccc(CNC(=O)c2ccccc2-c2c3ccc(=O)cc-3oc3cc(O)ccc23)cc1 [Example 84, N-(4-(3-(((2R,6S)-2,6-dimethylpiperidin-1-yl)(imino)methyl)guanidino)benzyl)-2-(6-hydroxy-3-oxo-3H-xanthen-9-yl)benzamide] | 27.4
N=C(NC(=N)Nc1cnccn1)Nc1ccc(OC(F)(F)F)cc1 [Example 66, N1-2-pyrazine-N5-(4-trifluoromethoxy)phenyl biguanide] | > 100
CC1CC(C)CN(C(=N)NC(=N)Nc2ccc(CNC(=O)c3ccccc3-c3c4ccc(=O)cc-4oc4cc(O)ccc34)cc2)C1 (centres unmarked) [Example 85, N-(4-(3-((3,5-dimethylpiperidin-1-yl)(imino)methyl)guanidino)benzyl)-2-(6-hydroxy-3-oxo-3H-xanthen-9-yl)benzamide] | 28.8
N=C(NCc1ccco1)NC(=N)Nc1ccc(OC(F)(F)F)cc1 [Example 71, N1-furan-2-ylmethyl-N5-(4-trifluoromethoxy)phenyl biguanide] | 6.9
N=C(NCc1ccco1)NC(=N)Nc1ccc(Cl)cc1 [Example 70, N1-furan-2-ylmethyl-N5-(4-chloro)phenyl biguanide] | 13.5
N=C(NC(=N)N1CCCC1)Nc1ccc(CNC(=O)c2ccccc2-c2c3ccc(=O)cc-3oc3cc(O)ccc23)cc1 [Example 83, 2-(6-hydroxy-3-oxo-3H-xanthen-9-yl)-N-(4-(3-(imino(pyrrolidin-1-yl)methyl)guanidino)benzyl)benzamide] | 56.8
N=C(NC(=N)Nc1cccnc1)Nc1ccc(C(F)(F)F)cc1 [Example 62, N1-3-pyridine-N5-(4-trifluoromethyl)phenyl biguanide] | > 100
COc1ccc(NC(=N)NC(=N)N2CCCC2)cc1Cl [Example 3, N1-pyrrolidine-N5-(3-chloro-4-methoxy)phenyl biguanide] | > 100
CCNC(=O)c1ccc(CNC(=N)NC(=N)N2CCCC2)cc1 [Example 27, N-ethyl-4-((3-(imino(pyrrolidin-1-yl)methyl)guanidino)methyl)benzamide] | > 100
N=C(N)NC(=N)Nc1ccc(Cl)c(Cl)c1 [Example 56] | 34.8
N=C(NC(=N)N1CCCC1)Nc1ccc(NC(=O)CCCCC2CC3NC(=O)NC3S2)cc1 (centres unmarked) [Example 82, N-(4-(3-(imino(pyrrolidin-1-yl)methyl)guanidino)phenyl)-5-(2-oxohexahydro-1H-thieno[2,3-d]imidazol-5-yl)pentanamide] | > 100
N=C(N)NC(=N)Nc1cc(C(F)(F)F)ccc1Cl [Example 57, N5-(2-chloro-5-trifluoromethyl)phenyl biguanide] | > 100
N=C(NC(=N)NC1CCCC1)Nc1ccc(F)cc1 [Example 69, N1-cyclopentyl-N5-(4-fluoro)phenyl biguanide] | 68.5
N=C(NC(=N)Nc1cccnc1)Nc1ccc(OC(F)(F)F)cc1 [Example 63, N1-3-pyridine-N5-(4-trifluoromethoxy)phenyl biguanide] | > 100
N=C(NC(=N)N1CCC(F)(F)C1)Nc1ccc(OC(F)(F)F)cc1 [Example 51, N1-3,3-difluoro pyrrolidine-N5-(4-trifluoromethoxy)phenyl biguanide] | 7.83
N=C(NCc1ccc(C(=O)N2CCCCC2)cc1)NC(=N)N1CCCC1 [Example 25, N—(N-(4-(piperidine-1-carbonyl)benzyl)carbamimidoyl)pyrrolidine-1-carboximidamide] | > 100
CN1CCN(C(=N)NC(=N)Nc2ccccc2Br)CC1 [Example 33, N1-4-methyl piperazine-N5-(2-bromo)phenyl biguanide] | > 100
N=C(NC(=N)N1CCC(O)CC1)Nc1ccc(Oc2ccccc2)cc1 [Example 21, N1-4-hydroxy piperidine-N5-(4-phenoxy)phenyl biguanide] | > 100
N=C(NC(=N)N1CCCC1)Nc1cccc(-c2ccc(F)cc2)c1 [Example 10, N1-pyrrolidine-N5-(4′-fluorobiphenyl-3-yl) biguanide] | 6.28
CN1CCN(C(=N)NC(=N)NCc2cccc(Br)c2)CC1 [Example 34, N1-4-methyl piperazine-N5-(3-bromo)benzyl biguanide] | > 100
N=C(NC(=N)N1CCCC1)Nc1ccc(-c2cccc(F)c2)cc1 [Example 11, N1-pyrrolidine-N5-(3′-fluorobiphenyl-4-yl) biguanide] | 6.46

Molecule | IC50 [µM]
CC1CCCN(C(=N)NC(=N)Nc2ccc(CCN)cc2)C1 (centres unmarked) [Example 50] | > 100
CN1CCN(C(=N)NC(=N)Nc2ccc(Br)cc2)CC1 [Example 31, N1-4-methyl piperazine-N5-(4-bromo)phenyl biguanide] | 93.6
CN1CCN(C(=N)NC(=N)Nc2ccc(C(F)(F)F)c(F)c2)CC1 [Example 44, N1-4-methyl piperazine-N5-(3-fluoro-4-trifluoromethyl)phenyl biguanide] | 42.2
N=C(NC(=N)N1CC[C@@H](O)C1)Nc1ccc(OC(F)(F)F)cc1 [Example 19, N1-(R)-3-hydroxy pyrrolidine-N5-(4-trifluoromethoxy)phenyl biguanide] | > 100
N=C(NC(=N)N1CCC(F)(F)CC1)Nc1ccc(OC(F)(F)F)cc1 [Example 52, N1-4,4-difluoro piperidine-N5-(4-trifluoromethoxy)phenyl biguanide] | 7.65
N=C(NC(=N)N1CCCC1)Nc1ccc(CCNC(=O)CCCCC2CC3NC(=O)NC3S2)cc1 (centres unmarked) [Example 77, N-(4-(3-(imino(pyrrolidin-1-yl)methyl)guanidino)phenethyl)-5-(2-oxohexahydro-1H-thieno[2,3-d]imidazol-5-yl)pentaneamide] | > 100
Cc1ccc2[nH]c(NC(=N)N3CCCC3)nc2c1 [Example 94, N-(5-methyl-1H-benzo[d]imidazol-2-yl)pyrrolidine-1-carboximidamide] | > 100
CN1CCN(C(=N)NC(=N)Nc2cccc(Br)c2)CC1 [Example 32, N1-4-methyl piperazine-N5-(3-bromo)phenyl biguanide] | 90.3
N=C(Nc1nc2cc(F)ccc2[nH]1)N1CCCC1 [Example 93, N-(5-fluoro-1H-benzo[d]imidazol-2-yl)pyrrolidine-1-carboximidamide] | > 100
N=C(N)NC(=N)Nc1cccc(Cl)c1Cl [Example 59, N5-(2,3-dichloro)phenyl biguanide] | > 100
N=C(NC(=N)N1CCCC1)NC1CCCc2ccccc21 (centres unmarked) [Example 15, N1-pyrrolidine-N5-(1,2,3,4-tetrahydronaphthalen-1-yl) biguanide] | 712
CN1CCN(C(=N)NC(=N)NCc2ccc(C(F)(F)F)c(F)c2)CC1 [Example 42, N1-4-methyl piperazine-N5-(3-fluoro-4-trifluoromethyl)benzyl biguanide] | > 100
CN(C)c1ccc(NC(=N)NC(=N)N2CCCC2)cc1 [Example 5, N1-pyrrolidine-N5-(4-dimethylamino)phenyl biguanide] | > 100
N=C(Nc1nc2cc(OC(F)(F)F)ccc2[nH]1)N1CCCC1 [Example 92, N-(5-(trifluoromethoxy)-1H-benzo[d]imidazol-2-yl)pyrrolidine-1-carboximidamide] | > 100
N=C(NC(=N)Nc1ccc(-c2ccccc2)cc1)Nc1ccc(OC(F)(F)F)cc1 [Example 75, N1-(4-trifluoromethoxy)phenyl-N5-(N-biphenyl-4-yl) biguanide] | 8.21
CCNC(=O)c1cccc(CNC(=N)NC(=N)N2CCCC2)c1 [Example 30, N-ethyl-3-((3-(imino(pyrrolidin-1-yl)methyl)guanidino)methyl)benzamide] | > 100
COc1ccc(NC(=N)NC(=N)N2CCCC2)cc1 [Example 2, N1-pyrrolidine-N5-(4-methoxy)phenyl biguanide] | > 100
N=C(N)NC(=N)Nc1ccc(SC(F)(F)F)cc1 [Example 60, N5-(4-trifluoromethylthio)phenyl biguanide] | 49.8
N=C(NCc1ccco1)NC(=N)Nc1ccc(C(F)(F)F)cc1 [Example 72, N1-furan-2-ylmethyl-N5-(4-trifluoromethyl)phenyl biguanide] | 8.8
CC1CC(C)CN(C(=N)NC(=N)Nc2ccc(CCN)cc2)C1 (centres unmarked) [Example 49] | > 100
CN1CCN(C(=N)NC(=N)NCc2ccc(OC(F)(F)F)c(F)c2)CC1 [Example 43, N1-4-methyl piperazine-N5-(3-fluoro-4-trifluoromethoxy)benzyl biguanide] | > 100
